Measured values from ChEMBL document CHEMBL1201862, “PubChem BioAssay data set” (2004).
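The compound was tested at five concentrations on cells cultured in 96-well plates, with a 48-hour exposure period. GI50 marks 50% less growth.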 Activity calls are given as the source filed them. Rule as the data show it: active = GI50 up to about 1.1 µM and inactive = higher.

How the values were obtained:
Experiment in all cases: NCI-60 cell line screen, 48 h
HL-60 = test system: HL-60
K562 = test system: K562
MDA-MB-435 = test system: MDA-MB-435
SR = test system: SR
M14 = test system: M14
HCC 2998 = test system: HCC 2998
RXF 393 = test system: RXF 393
NCI-H460 = test system: NCI-H460
MCF7 = test system: MCF7
Hs-578T = test system: Hs-578T
SW-620 = test system: SW-620
ACHN = test system: ACHN
SK-MEL-28 = test system: SK-MEL-28
T47D = test system: T47D
SNB-75 = test system: SNB-75
EKVX = test system: EKVX
SNB-19 = test system: SNB-19
NCI-H226 = test system: NCI-H226
CCRF-CEM = test system: CCRF-CEM
SK-MEL-5 = test system: SK-MEL-5
DU-145 = test system: DU-145
786-0 = test system: 786-0
MDA-MB-231 = test system: MDA-MB-231
TK-10 = test system: TK-10
U-251 = test system: U-251
NCI-H23 = test system: NCI-H23
HT-29 = test system: HT-29
LOX IMVI = test system: LOX IMVI
OVCAR-5 = test system: OVCAR-5
A549 = test system: A549
HOP-62 = test system: HOP-62
OVCAR-8 = test system: OVCAR-8
RPMI-8226 = test system: RPMI-8226
Malme-3M = test system: Malme-3M
SN12C = test system: SN12C
OVCAR-4 = test system: OVCAR-4
UACC-257 = test system: UACC-257
SK-OV-3 = test system: SK-OV-3
A498 = test system: A498
MOLT-4 = test system: MOLT-4
SF-268 = test system: SF-268
SF-295 = test system: SF-295
NCI/ADR-RES = test system: NCI/ADR-RES
KM12 = test system: KM12
HCT-116 = test system: HCT-116
COLO 205 = test system: COLO 205
HCT-15 = test system: HCT-15
HOP-92 = test system: HOP-92
UO-31 = test system: UO-31
IGROV-1 = test system: IGROV-1
SF-539 = test system: SF-539
UACC-62 = test system: UACC-62

C=CCC(C)C12CCNC(Cc3ccc(O)cc31)C2C (configuration not stated)
GI50 (HL-60): > 10 µM (inactive)
GI50 (K562): 41.3 µM (inactive)
GI50 (MDA-MB-435): > 100 µM (inactive)
GI50 (SR): 82.4 µM (inactive)
GI50 (M14): 64.4 µM (inactive)
GI50 (HCC 2998): 51.1 µM (inactive)
GI50 (RXF 393): > 100 µM (inactive)
GI50 (NCI-H460): 89.9 µM (inactive)
GI50 (MCF7): > 100 µM (inactive)
GI50 (Hs-578T): 82.8 µM (inactive)
GI50 (SW-620): > 100 µM (inactive)
GI50 (ACHN): > 100 µM (inactive)
GI50 (SK-MEL-28): > 100 µM (inactive)
GI50 (T47D): > 100 µM (inactive)
GI50 (SNB-75): > 100 µM (inactive)
GI50 (EKVX): > 100 µM (inactive)
GI50 (SNB-19): > 100 µM (inactive)
GI50 (NCI-H226): > 100 µM (inactive)
GI50 (CCRF-CEM): > 100 µM (inactive)
GI50 (SK-MEL-5): > 100 µM (inactive)
GI50 (DU-145): > 100 µM (inactive)
GI50 (786-0): > 100 µM (inactive)
GI50 (MDA-MB-231): > 100 µM (inactive)
GI50 (TK-10): > 100 µM (inactive)
GI50 (U-251): > 100 µM (inactive)
GI50 (NCI-H23): > 100 µM (inactive)
GI50 (HT-29): 79.1 µM (inactive)
GI50 (LOX IMVI): > 100 µM (inactive)
GI50 (OVCAR-5): > 100 µM (inactive)
GI50 (A549): > 100 µM (inactive)
GI50 (HOP-62): > 100 µM (inactive)
GI50 (OVCAR-8): > 100 µM (inactive)
GI50 (RPMI-8226): > 100 µM (inactive)
GI50 (Malme-3M): > 100 µM (inactive)
GI50 (SN12C): > 100 µM (inactive)
GI50 (OVCAR-4): > 100 µM (inactive)
GI50 (UACC-257): 66.2 µM (inactive)
GI50 (SK-OV-3): > 100 µM (inactive)
GI50 (A498): 43.6 µM (inactive)
GI50 (MOLT-4): 84.5 µM (inactive)
GI50 (SF-268): > 100 µM (inactive)
GI50 (SF-295): > 100 µM (inactive)
GI50 (NCI/ADR-RES): > 100 µM (inactive)
GI50 (KM12): > 100 µM (inactive)
GI50 (HCT-116): > 100 µM (inactive)
GI50 (COLO 205): > 100 µM (inactive)
GI50 (HCT-15): > 100 µM
GI50 (HOP-92): 56.1 µM (inactive)
GI50 (UO-31): 38.6 µM (inactive)
GI50 (IGROV-1): > 100 µM (inactive)
GI50 (SF-539): > 100 µM (inactive)
GI50 (UACC-62): > 100 µM (inactive)
